From patent US11014934B2, “Antiseptic drug” (AO “TATKHIMFARMPREPARATY”, priority 2017, dated 2021) come the findings set out here.

Read-outs that look alike come from different tables or passages of the source.

As usually defined, the IC50 is the concentration at which inhibition is half-maximal.

What all share (type): cell-based
Test [1] relates to gram-negative bacteria. The test is described as follows: MIC screening, summary for gram-negative bacteria. As for the experimental part: A comparative assessment of the spectrum of antibacterial action was carried out on archival and clinical strains of gram-positive and gram-negative microorganisms in accordance with the [Opredeleniye chuvstvitel'nosti mikroorganizmov k antibakterial'nym preparatam (Metodicheskiye ukazaniya MUK 4.2.1890-04). Utverzhdeny i vvedeny v deystviye Glavnym gosudarstvennym sanitarnym vrachom Rossiyskoy Federatsii G. G. Onishchenko 04.03.2004 g. Determination of the sensitivity of microorganisms to antibacterial drugs (Guidelines MUK 4.2.1890-04). Approved and put into effect by the Chief State Sanitary Doctor of the Russian Federation G. G. Onishchenko on 4 Mar. 2004].
The value of the minimum inhibitory concentration (MIC) was determined by the method of serial dilutions on Müller-Hinton broth using 96-well sterile plates. Two-fold dilutions of the test substances in a nutrient medium were prepared. The final concentrations were 1-128 ug/ml. The growth of cultures was assessed visually, comparing the growth of microorganisms in the presence of test compounds with the growth of culture without them. […] The first lowest concentration of the studied substance (from a series of consecutive dilutions), where bacterial growth is not visually determined, is considered to be the minimum inhibitory concentration (MIC). MIC was determined by the method of serial dilutions in broth with increment=2, so the differences of neighboring dilutions are not considered to be significant. In each experience there is a positive (broth with growing culture) and a negative (broth without growing culture) control.
To determine the MIC, 10 μl of culture medium was taken from those wells in which growth was not observed, and inoculation was performed on a dense Müller-Hinton broth. For the preparation of the inoculum, a pure, daily culture of gram-positive and gram-negative microorganisms grown on a dense nutrient medium was used. Nutrient medium is Müller-Hinton broth, which was prepared from dry media (Müller-Hinton broth, Acumedia, Baltimore), cultivation was carried out on agarized Müller-Hinton broth, including an additional 2% agar. The media were autoclaved at 121° C. for 15 minutes. […] The inoculum was used within 15 minutes after preparation; the purity of the bacterial strains was monitored before each experiment.
100 μl of Müller-Hinton broth was added to the wells of each plate; The tested substance was introduced into the first well at a concentration of 128 μg/ml in a volume of 100 μl and its concentration was adjusted to 0.5 μg/ml by consecutive two-fold dilution. […] In addition, the purity of nutrient media and solvents was monitored. […] The growth of cultures was assessed visually, comparing the growth of microorganisms in the presence of test compounds with the growth of culture without them. […]

The subject of test [2] is P.aeruginosa in the biofilm. The test is described as follows: Antibacterial activity against cells immersed in a biofilm matrix (CFU, drop plate). The conditions noted are these: 24 hours. As for the experimental part:
To determine the effectiveness of the antibiotic against bacteria in […], bacteria were grown in Basal medium for 3 days at a temperature of 37° C. without swinging to obtain a dense biofilm [A. R Kayumov, Khakimullina E., Sharafutdinov I, Trizna E., Latypova L., Lien Thi, Margulis A., Bogachev M, Kurbangalieva A. Inhibition of biofilm formation in Bacillus subtilis by new halogenated furanoses. J. Antibiotics.—2014.—V. 68.—No 5.—P. 297-301.]. Then the biofilm was washed with a sterile 0.9% NaCl solution and fresh sterile medium was poured. Antiseptics were added to concentrations (1-16)×MBC (minimum bactericidal concentration) and incubated for 24 hours. Then the culture fluid was removed from the wells, washed once with 0.9% NaCl solution to remove non-adherent cells, and cell viability in biofilms was evaluated by counting CFU by Drop plate analysis [B. Herigstad, M Hamilton, J. Heersink How to optimize the drop plate method for enumerating bacteria. J Microbiol Methods.—2001.—V. 44.—P. 121-129]. To do this, the biofilm was mechanically removed from the surface and homogenized in 0.9% NaCl by pipetting and ultrasonic treatment. Then, serial 10-fold dilutions of the bacterial suspension in 0.9% NaCl were prepared, and 5 μI of each suspension were transferred to plates with dense nutrient medium. CFU was counted from drops containing 5-10 colonies.
The results of the study of antimicrobial activity against cells of the studied strains immersed in the biofilm matrix, in comparison with miramistin and benzalkonium chloride, are presented in FIGS. 1 and 2.

In test [3] the test system is Stylonychia mytilus. The test is described as follows: Antiprotozoal activity by death of protozoa. The conditions noted are these: for IC50: read-out: IC50 (95% confidence interval). Here is the method: Evaluation of the antiprotozoal activity of compound I was determined by the viability of the protozoa genus of hypotrichs Stylonychia mytilus in a nutrient medium in the presence of the studied substances. A mother liquor of compound I (10 mg/ml) was prepared in a mixture of DMSO and 96% ethanol (1:1). A 1% aqueous solution of DMSO and ethyl alcohol served as a negative control, and miramistin, benzalkonium chloride, and chlorhexidine were used as reference preparations. Then, from the mother liquors by repeated dilutions with water, working solutions were prepared corresponding to doses of 5; 10; 20; 25; 50; 75; 100 and 150 μg/ml. 10 μl of culture medium with protozoa and 10 μl of a solution of the test substance were applied to a chamber slide. The experiment was done in five replicates.
Slides were examined under a light microscope, antiprotozoal activity of substances (MIC and IC50) were determined by the death of protozoa. The Hill regression model with 5 parameters was used for the analysis.

The mark [4] stands for this setting: death of protozoa, Hill regression.

In the case of `CCCCCCCCCCCC[N+](C)(C)Cc1cnc(C[N+](C)(C)CCCCCCCCCCCC)c2c1COC(CC)O2` (stereo not shown) [Compound I, 5,8-(Bis(methylene (N, N-dimethyl-N-dodecylammonium))-2-ethyl-4H-[1,3]dioxino [4,5-c]pyridiniumdichloride], the MIC in test [1] (in 11 strains) is 2 to 4 µg/mL; in test [1] (in 12 strains), 32 to 64 µg/mL; in test [1] (in 18 strains), 8 to 16 µg/mL; in test [3] (death of protozoa, read-out: MIC), 25 µg/mL. The “excess of MBC giving a decrease in the number of CFU by 3 orders of magnitude” value (shortened to “excess of MBC giving a decrease”) in test [2] is listed as 4-8 times. The IC50 in test [3] (setting [4]) amounted to 59 µg/mL.
Consider `CCCCCCCCCCCCCC(=O)NCCC[N+](C)(C)Cc1ccccc1.O.[Cl-]` [Miramistin, benzyldimethyl [3-(myristoylamino)propyl]-ammonium chloride monohydrate], for which the MIC in test [1] (Escherichia coli, ATCC25922, range, with the exception for the archival strain E. coli ATCC 25922) is 32 to 64 µg/mL. Besides, in test [2], the “excess of MBC giving a decrease” value came to 16 times. In test [3], the MIC was 50 µg/mL and the half-inhibitory concentration (IC50) was found to be 92 µg/mL.
On to “alkyldimethyl(phenylmethyl) ammonium chloride [Benzalconium chloride]”, for which the “excess of MBC giving a decrease” value in test [2] is reported as 16 times. In test [3] (death of protozoa), the MIC is 30 µg/mL. For the same compound, the “IC50 (95% confidence interval)” value in test [3] (setting [4]) is given as 67 (66-69) μg/ml.
